Data on 25 compounds can be found in US9630939B2, “Derivative of homoserine lactone, and preparation method and use thereof” (priority 2013, dated 2017).

Data set [1] has as its system C. violaceum CV026. Kind of data set: Measurement of IC50 of compounds having an inhibitory effect on C. violaceum quorum sensing (purple pigment absorbance at 585 nm). Format: cell-based. Conditions: Chromobacterium violaceum, read-out: IC50 of compounds having bacterial quorum sensing inhibitory activity. How it is done: 2.1 The wells of a 12-well plate were marked as initial concentration, 2, 4, 8, 16, 32, 64, 128, 256, DMSO group, and a blank control group from left to right and from up to bottom, respectively.
2.2 The monoclonal C. violaceum CV026 grew on LB solid plate was cultured to exponational phase in a 5 ml fresh LB liquid culture medium, 50 μl was then taken for seeding in a 5 ml LB culture medium, and was cultured until the optical density OD value was about 1.0 at 585 nm; the culture was then mixed well with LB culture medium at a ratio of 1:9 by volume (with OD of about 0.15), and was added to a 12-well plate in an amount of 2 ml/well.
2.3 The compounds preliminarily screened to have quorum sensing inhibitory activity were dissolved respectively in DMSO (at a concentration of 0.065M), and then 10 μl was taken into 10 μl DMSO solution to achieve the purpose of 2-fold dilution, and so on. Each compound was gradiently diluted to a highest fold of 256 (gradient dilution of 2, 4, 8, 16, 32, 64, 128, 256 fold).
2.4 To each well, 15 μl 1000-fold diluted inducer C6—HSL (initial concentration of 0.125M) and 8 μl compound solution at each diluted gradient was added; to DMSO control group, 8 μl DMSO was added; to a blank control group, 8 μl LB culture medium was added. Finally, it was ensured that 2 ml culture in each of the 12-well plate was mixed well.
2.5 The 12-well plate was placed in a 30° C. shaker at 130 rpm and was cultured for 10-12 h.
2.6 After the culture was finished, 1 ml culture was taken from each well and was put in a 1.5 ml EP tube and then was centrifugated at 12000 rpm for 10 mins. The supernatant of the culture was sucked out, and 500 μl DMSO was added to each EP tube to dissolve the purple pigment in the culture. After the pigment was completely dissolved, centrifugation was performed at 12000 rpm for 10 mins. 200 μl supernatant pigment was put in a 96-well culture plate, and was measured for absorbance value at 585 nm by a Microplate Reader, […] the absorbance value and the corresponding concentration were plotted to get the IC50 value.

Data set [2] relates to C. violaceum CV026. Kind of data set: Preliminary screening of bacterial quorum sensing agonistic / inhibitory activity on LB plate (purple stain / white circle). Format: cell-based. The settings on record: for Regulatory activity (bacterial quorum sensing): 1 μl of 0.065M compound spotted on LB plate with C. violaceum CV026, without (agonistic) or with inducer C6-HSL (inhibitory), 30° C., 16-18 h. How it is done: 1.1 Preparation work: different compounds to be tested (Compounds 1-29 prepared in Example 1-29 and intermediates 1-3) were weighted and then were dissolved in 200 μl DMSO (dimethyl sulfoxide) to prepare a solution at a concentration of 0.065M. 5.0 mg inducer, N-hexanoyl homoserine lactone (C6-HSL, purchased from Sigma Company), was weighted and was dissolved in 200 μl DMSO (at a concentration of 0.125M), and the compounds and the inducer were stored at 4[…] for further use. C. violaceum CV026 (donated by Professor McLean J C from Texas State University) in LB culture medium (LB culture medium consisting of 1% (percentage by mass) tryptone, 0.5% (percentage by mass) yeast extract, 1% (percentage by mass) NaCl and water) was cultured under shaking in a shaker at 30 °C, 200 rpm to get the culture medium for further use.
1.2 Method for preliminary screening of compounds having agonistic activity: 400 μl C. violaceum CV026 (at a bacterial concentration of 1×10^8/ml) was added to 5 ml melted semi-solid LB culture medium, and was mixed well; the mixed culture medium was poured into a solid LB plate; when the mixed culture medium was solidified on the plate, lattice was made thereon; 1 μl of the dissolved compounds to be tested (Compounds 1-29 in Examples 1-29, at a concentration of 0.065M) was spotted on the plate; when the compounds on the plate was dried in air, the plate was put in a 30° C. oven upside down and was cultured for a period of 16-18 h. If the compound to be tested has an agonistic effect on C. violaceum CV026 on the LB plate, purple stain will be induced on the LB plate. The agonistic activity of a compound is determined depending on whether purple stain is induced for C. violaceum CV026 on LB plate as well as the purple depth.
1.3 Method for preliminary screening of compounds having inhibitory activity: the inducer C6—HSL was diluted gradiently to 1000 times by means of 2-fold dilution; 15 μl diluted inducer and 400 μl C. violaceum CV026 in exponential phase (at a bacterial concentration of 1×10^8/ml) were mixed well and then were added to a 5 ml melted semi-solid LB culture medium; the mixture of inducer, C. violaceum, and semi-solid LB was poured onto a solid LB plate; when the mixture was solidified on the plate, lattice was made thereon; 1 μl of the dissolved compounds to be tested (Compounds 1-29 prepared in Example 1-29 and intermediates 1-3, at a concentration of 0.065M) was spotted on the plate; when the compounds on the plate were dried in air, the plate was put in a 30° C. oven upside down and was cultured for a period of 16-18 h. […] The inhibitory activity of a compound is preliminary determined depending on the size of the white circle appeared after C. violaceum CV026 was inhibited on LB plate.

What is called IC50 is the concentration that gives 50% inhibition. As a reminder, the melting point is the temperature, or range, at which the solid turns liquid. As for `O=C(Nc1ccc(S(=O)(=O)N[C@H]2CCOC2=O)cc1)c1ccc(F)cc1` [Compound 17, (S)-4-fluoro-N-(4-(N-(2-oxotetrahydrofuran-3-yl)sulfamoyl)phenyl)benzamide], the melting point lay within 236 to 237 °C. Further, in the data set with C. violaceum CV026 [1], the IC50 is 14.7 ± 2.58 µM. In the data set with C. violaceum CV026 [2], the “Regulatory activity (bacterial quorum sensing)” value (shortened to “Regulatory activity”) is on record as “−”.
Regarding `CCCC(=O)Nc1ccc(S(=O)(=O)N[C@H]2CCOC2=O)cc1` [Compound 2, (S)-N-(4-(N-(2-oxotetrahydrofuran-3-yl)sulfamoyl)phenyl)butyrylamide], the melting point was 180 to 182 °C. For the same compound, the “Regulatory activity” value in the data set with C. violaceum CV026 [2] is reported as “−”.
`Br.NC1CCOC1=O` (stereo not drawn) [Intermediate 1, (L)-homoserine lactone hydrobromide]: in the data set with C. violaceum CV026 [2], the “Regulatory activity” value was “+”.
Turning to `CCOc1ccc(C(=O)Nc2ccc(S(=O)(=O)N[C@H]3CCOC3=O)cc2)cc1`, the melting point was in the range of 256 to 258 °C.
Compound `O=C(Nc1ccc(S(=O)(=O)N[C@H]2CCOC2=O)cc1)c1ccc(Br)cc1` [Compound 12, (S)-4-bromo-N-(4-(N-(2-oxotetrahydrofuran-3-yl)sulfamoyl)phenyl)benzamide] displayed a melting point of 112 to 113 °C. For the same compound, in the data set with C. violaceum CV026 [2], the “inhibitory or agonizing effect on bacterial quorum sensing (in words)” value was “both an agonizing effect and an inhibitory effect”; the “Regulatory activity” value is “±”.
Turning to `O=C(Nc1ccc(S(=O)(=O)N[C@H]2CCOC2=O)cc1)c1ccccc1Cl` [Compound 28, (S)-2-chloro-N-(4-(N-(2-oxotetrahydrofuran-3-yl)sulfamoyl)phenyl)benzamide], the IC50 in the data set on C. violaceum CV026 [1] amounted to 1.66 ± 0.33 µM. For the same compound, the “Regulatory activity” value in the data set with C. violaceum CV026 [2] is “−”.
Consider `O=C(Nc1ccc(S(=O)(=O)N[C@H]2CCOC2=O)cc1)c1ccc([N+](=O)[O-])cc1`, for which the melting point is 257 to 258 °C.
With `CCC(=O)Nc1ccc(S(=O)(=O)N[C@H]2CCOC2=O)cc1` [Compound 1, (S)-N-(4-(N-(2-oxotetrahydrofuran-3-yl)sulfamoyl)phenyl) propanamide], the melting point was 179 to 181 °C. In addition, in the data set with C. violaceum CV026 [2], the “Regulatory activity” value is “−”.
Consider `O=C(Nc1ccc(S(=O)(=O)N[C@H]2CCOC2=O)cc1)c1ccc(CCl)cc1` [Compound 15, (S)-4-(chloromethyl)-N-(4-(N-(2-oxotetrahydrofuran-3-yl)sulfamoyl)phenyl)benzamide], for which the melting point was 251 to 253 °C. In addition, in the data set on C. violaceum CV026 [2], the “inhibitory or agonizing effect on bacterial quorum sensing (in words)” value was “agonizing effect” and the “Regulatory activity” value was “+”.
Regarding `CCCCC(=O)Nc1ccc(S(=O)(=O)N[C@H]2CCOC2=O)cc1` [Compound 3, (S)-N-(4-(N-(2-oxotetrahydrofuran-3-yl)sulfamoyl)phenyl)pentanamide], the melting point was 174 to 176 °C. Also, the “Regulatory activity” value in the data set with C. violaceum CV026 [2] is listed as “−”.
In turn, `CCCCCCCCC(=O)Nc1ccc(S(=O)(=O)N[C@H]2CCOC2=O)cc1` displayed a melting point of 150 to 152 °C.
`Cc1cccc(C(=O)Nc2ccc(S(=O)(=O)N[C@H]3CCOC3=O)cc2)c1` [Compound 20, (S)-3-methyl-N-(4-(N-(2-oxotetrahydrofuran-3-yl)sulfamoyl)phenyl)benzamide] returned a melting point of 193 to 194 °C. In the data set on C. violaceum CV026 [2], the “Regulatory activity” value is “−”.
In the case of `N#Cc1ccc(C(=O)Nc2ccc(S(=O)(=O)N[C@H]3CCOC3=O)cc2)cc1`, the melting point was 230 to 231 °C.
For the compound `CCCc1ccc(C(=O)Nc2ccc(S(=O)(=O)N[C@H]3CCOC3=O)cc2)cc1`, the melting point fell in the range of 247 to 249 °C.
In turn, `O=C(Nc1ccc(S(=O)(=O)N[C@H]2CCOC2=O)cc1)c1cccc(Cl)c1` [Compound 22, (S)-3-chloro-N-(4-(N-(2-oxotetrahydrofuran-3-yl)sulfamoyl)phenyl)benzamide] registered a melting point of 213 to 214 °C. Besides, the “Regulatory activity” value in the data set with C. violaceum CV026 [2] is “−”.
For `O=C(Nc1ccc(S(=O)(=O)N[C@H]2CCOC2=O)cc1)c1ccc(Cl)cc1` [Compound 14, (S)-4-chloro-N-(4-(N-(2-oxotetrahydrofuran-3-yl)sulfamoyl)phenyl)benzamide], the “Regulatory activity” value in the data set on C. violaceum CV026 [2] was “−”.
As to `CCCCCC(=O)Nc1ccc(S(=O)(=O)N[C@H]2CCOC2=O)cc1` [Compound 4, (S)-N-(4-(N-(2-oxotetrahydrofuran-3-yl)sulfamoyl)phenyl)hexanamide], the melting point fell in the range of 142 to 143 °C. Also, in the data set on C. violaceum CV026 [1], the IC50 amounted to 29 ± 2.41 µM. The “Regulatory activity” value in the data set on C. violaceum CV026 [2] is recorded as “−”.
For `O=C(Nc1ccc(S(=O)(=O)N[C@H]2CCOC2=O)cc1)c1ccccc1F` [Compound 24, (S)-2-fluoro-N-(4-(N-(2-oxotetrahydrofuran-3-yl)sulfamoyl)phenyl)benzamide], the IC50 with C. violaceum CV026 [1] stood at 1.64 ± 0.27 µM. In the data set with C. violaceum CV026 [2], the “Regulatory activity” value is reported as “−”.
`CCCCCCC(=O)Nc1ccc(S(=O)(=O)N[C@H]2CCOC2=O)cc1` [Compound 5, (S)-N-(4-(N-(2-oxotetrahydrofuran-3-yl)sulfamoyl)phenyl)heptamide]: the melting point was 143 to 144 °C. For the same compound, in the data set on C. violaceum CV026 [2], the “Regulatory activity” value was “−”.
Consider `CC(=O)Nc1ccc(S(=O)(=O)N[C@H]2CCOC2=O)cc1` [Intermediate 2, (S)-N-(4-(N-(2-oxotetrahydrofuran-3-yl)sulfamoyl)phenyl)acetamide], for which the “Regulatory activity” value with C. violaceum CV026 [2] is listed as “−”.
Take `O=C(Nc1ccc(S(=O)(=O)N[C@H]2CCOC2=O)cc1)c1ccccc1` [Compound 9, (S)-N-(4-(N-(2-oxotetrahydrofuran-3-yl)sulfamoyl)phenyl)benzamide]: the IC50 with C. violaceum CV026 [1] was found to be 17.2 ± 2.6 µM. The “Regulatory activity” value with C. violaceum CV026 [2] was “−”.
`O=C(Cc1ccccc1)Nc1ccc(S(=O)(=O)N[C@H]2CCOC2=O)cc1` had a melting point of 157 to 158 °C.
For the compound `O=C(Nc1ccc(S(=O)(=O)N[C@H]2CCOC2=O)cc1)c1cccc(F)c1` [Compound 23, (S)-3-fluoro-N-(4-(N-(2-oxotetrahydrofuran-3-yl)sulfamoyl)phenyl)benzamide], the half-inhibitory concentration (IC50) with C. violaceum CV026 [1] was found to be 7.79 ± 2.68 µM. Besides, the “Regulatory activity” value in the data set on C. violaceum CV026 [2] is given as “−”.
Compound `CCCCCCCC(=O)Nc1ccc(S(=O)(=O)N[C@H]2CCOC2=O)cc1` [Compound 6, (S)-N-(4-(N-(2-oxotetrahydrofuran-3-yl)sulfamoyl)phenyl)octanamide] came in with a melting point of 146 to 148 °C. In the data set with C. violaceum CV026 [2], the “Regulatory activity” value was “−”.
Regarding `CC(C)(C)c1ccc(C(=O)Nc2ccc(S(=O)(=O)N[C@H]3CCOC3=O)cc2)cc1` [Compound 16, (S)-4-(tert-butyl)-N-(4-(N-(2-oxotetrahydrofuran-3-yl)sulfamoyl)phenyl)benzamide], the melting point is 207 to 208 °C. In the data set with C. violaceum CV026 [2], the “Regulatory activity” value was “−”.
